Test results taken from ChEMBL document CHEMBL4616648, “Irijimasides A-E, Macrolide Glycosides from an Okeania sp. Marine Cyanobacterium” (J Nat Prod, 2020).

Key:
Mus musculus = species on record: Mus musculus; experiment: Inhibition of RANKL-induced osteoclastogenesis in mouse RAW264 cells assessed as reduction in TRAP activity incubated for 4 days; assay type: functional, cell-based
[1] = Cytotoxicity against mouse RAW264 cells at 3 to 30 uM by MTT assay; assay type: cell-based

Q: Which results are given for `C=CCC/C=C/C=C/C1C/C(C)=C/[C@@H](OC)C[C@@H]2O[C@@](O)(CC(O[C@@H]3O[C@@H](C)[C@H](O)[C@@H](O)[C@H]3OC)[C@@H]2C)[C@H](C)C(=O)O1` (stereo not given in full)?
A: inhibition (Mus musculus): Dose-dependent effect; Activity [1]: Non-Toxic

Q: Which inhibition (Mus musculus) does the source give for `C=CCC/C=C/C=C/C1C/C(C)=C/[C@@H](OC)C[C@H]2CC(O[C@@H]3O[C@@H](C)[C@H](O)[C@@H](OC)[C@H]3OC)C[C@](O)(O2)[C@H](C)C(=O)O1` (stereo not given in full) here?
A: Dose-dependent effect

Q: What about the Activity [1] of the same molecule?
A: Non-Toxic

Q: With `C#CCCC/C=C/C=C/C1C/C(C)=C/[C@@H](OC)C[C@@H]2O[C@@](O)(CC(O[C@@H]3O[C@@H](C)[C@H](O)[C@@H](O)[C@H]3OC)[C@@H]2C)[C@H](C)C(=O)O1` (stereo not given in full) as the molecule, how does the inhibition (Mus musculus) read?
A: Dose-dependent effect

Q: And the Activity [1]?
A: Non-Toxic

Q: Which results are given for `C=CCC/C=C/C=C/C1C/C(C)=C/[C@@H](OC)C[C@@H]2O[C@@](O)(CC(O[C@@H]3O[C@@H](C)[C@H](O)[C@@H](OC)[C@H]3OC)[C@@H]2C)[C@H](C)C(=O)O1` (stereo not given in full)?
A: inhibition (Mus musculus): Dose-dependent effect; Activity [1]: Non-Toxic

Q: With `C=CCC/C=C/C=C/C1C/C(C)=C/[C@@H](OC)C[C@@H]2O[C@](O)(CC(=O)O1)CC(O[C@@H]1O[C@@H](C)[C@H](O)[C@@H](OC)[C@H]1OC)[C@@H]2C` (stereo not given in full) as the molecule, how does the inhibition (Mus musculus) read?
A: Dose-dependent effect

Q: And the Activity [1]?
A: Non-Toxic
